Data from US20240132485A1, “HETEROCYCLIC CULLIN RING UBIQUITIN LIGASE COMPOUNDS AND USES THEREOF” (CEMM - FORSCHUNGSZENTRUM FÜR MOLEKULARE MEDIZIN GMBH, priority 2020, published 2024).
pEC50: −log10 of the molar value.

Assays:
[1] = target: T1, DDB1-CDK12/Cyclin K ternary complex (Homo sapiens, UniProt Q16531+Q9NYV4); assay: NanoBRET fold-change assay (HaloTag_CDK12 / NanoLuc_DDB1 in HEK293T); format: cell-based; details: 10 μM compound, 10 minutes
T1 construct: expressed in transfected cells; host or cells: HEK293T wildtype cells, transient PEI transfection
T1 sequence (Q9NYV4 whole entry): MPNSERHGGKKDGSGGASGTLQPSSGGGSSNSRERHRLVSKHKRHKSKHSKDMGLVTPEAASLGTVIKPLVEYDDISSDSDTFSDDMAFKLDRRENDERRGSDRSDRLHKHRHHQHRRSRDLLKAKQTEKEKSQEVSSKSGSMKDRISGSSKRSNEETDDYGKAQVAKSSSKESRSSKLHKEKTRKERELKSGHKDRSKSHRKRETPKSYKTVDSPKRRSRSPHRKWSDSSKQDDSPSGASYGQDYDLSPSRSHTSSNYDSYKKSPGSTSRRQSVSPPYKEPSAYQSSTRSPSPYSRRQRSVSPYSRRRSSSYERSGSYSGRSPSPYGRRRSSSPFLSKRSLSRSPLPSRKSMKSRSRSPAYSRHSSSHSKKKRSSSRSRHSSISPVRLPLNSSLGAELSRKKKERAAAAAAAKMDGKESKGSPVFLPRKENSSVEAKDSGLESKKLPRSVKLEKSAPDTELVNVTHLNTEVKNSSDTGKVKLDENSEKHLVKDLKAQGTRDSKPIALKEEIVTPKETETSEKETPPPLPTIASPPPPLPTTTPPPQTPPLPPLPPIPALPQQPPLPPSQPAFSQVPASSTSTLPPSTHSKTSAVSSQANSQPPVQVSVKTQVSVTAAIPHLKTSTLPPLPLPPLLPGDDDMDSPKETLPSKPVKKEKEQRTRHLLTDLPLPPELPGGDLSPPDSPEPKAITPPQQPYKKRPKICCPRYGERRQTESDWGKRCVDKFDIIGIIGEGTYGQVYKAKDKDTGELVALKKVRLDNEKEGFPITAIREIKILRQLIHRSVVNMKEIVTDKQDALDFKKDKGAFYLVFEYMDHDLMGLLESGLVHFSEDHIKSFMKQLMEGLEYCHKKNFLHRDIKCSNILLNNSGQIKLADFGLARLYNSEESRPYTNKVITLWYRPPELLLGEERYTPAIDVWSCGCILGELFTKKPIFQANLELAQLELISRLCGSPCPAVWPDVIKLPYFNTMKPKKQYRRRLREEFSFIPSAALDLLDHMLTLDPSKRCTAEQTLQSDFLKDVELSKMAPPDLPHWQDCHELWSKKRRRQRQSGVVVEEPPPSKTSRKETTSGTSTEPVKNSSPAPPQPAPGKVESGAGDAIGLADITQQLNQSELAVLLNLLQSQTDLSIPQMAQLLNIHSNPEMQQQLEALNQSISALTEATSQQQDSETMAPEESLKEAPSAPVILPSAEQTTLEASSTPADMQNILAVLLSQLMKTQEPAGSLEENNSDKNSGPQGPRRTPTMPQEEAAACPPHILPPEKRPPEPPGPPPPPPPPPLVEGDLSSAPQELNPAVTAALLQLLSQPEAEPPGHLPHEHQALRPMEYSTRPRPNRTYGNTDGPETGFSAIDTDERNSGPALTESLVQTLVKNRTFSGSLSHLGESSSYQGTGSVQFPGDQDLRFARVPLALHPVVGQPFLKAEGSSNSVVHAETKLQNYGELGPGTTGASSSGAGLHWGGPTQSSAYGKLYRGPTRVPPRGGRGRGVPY
T1 sequence (Q16531 whole entry): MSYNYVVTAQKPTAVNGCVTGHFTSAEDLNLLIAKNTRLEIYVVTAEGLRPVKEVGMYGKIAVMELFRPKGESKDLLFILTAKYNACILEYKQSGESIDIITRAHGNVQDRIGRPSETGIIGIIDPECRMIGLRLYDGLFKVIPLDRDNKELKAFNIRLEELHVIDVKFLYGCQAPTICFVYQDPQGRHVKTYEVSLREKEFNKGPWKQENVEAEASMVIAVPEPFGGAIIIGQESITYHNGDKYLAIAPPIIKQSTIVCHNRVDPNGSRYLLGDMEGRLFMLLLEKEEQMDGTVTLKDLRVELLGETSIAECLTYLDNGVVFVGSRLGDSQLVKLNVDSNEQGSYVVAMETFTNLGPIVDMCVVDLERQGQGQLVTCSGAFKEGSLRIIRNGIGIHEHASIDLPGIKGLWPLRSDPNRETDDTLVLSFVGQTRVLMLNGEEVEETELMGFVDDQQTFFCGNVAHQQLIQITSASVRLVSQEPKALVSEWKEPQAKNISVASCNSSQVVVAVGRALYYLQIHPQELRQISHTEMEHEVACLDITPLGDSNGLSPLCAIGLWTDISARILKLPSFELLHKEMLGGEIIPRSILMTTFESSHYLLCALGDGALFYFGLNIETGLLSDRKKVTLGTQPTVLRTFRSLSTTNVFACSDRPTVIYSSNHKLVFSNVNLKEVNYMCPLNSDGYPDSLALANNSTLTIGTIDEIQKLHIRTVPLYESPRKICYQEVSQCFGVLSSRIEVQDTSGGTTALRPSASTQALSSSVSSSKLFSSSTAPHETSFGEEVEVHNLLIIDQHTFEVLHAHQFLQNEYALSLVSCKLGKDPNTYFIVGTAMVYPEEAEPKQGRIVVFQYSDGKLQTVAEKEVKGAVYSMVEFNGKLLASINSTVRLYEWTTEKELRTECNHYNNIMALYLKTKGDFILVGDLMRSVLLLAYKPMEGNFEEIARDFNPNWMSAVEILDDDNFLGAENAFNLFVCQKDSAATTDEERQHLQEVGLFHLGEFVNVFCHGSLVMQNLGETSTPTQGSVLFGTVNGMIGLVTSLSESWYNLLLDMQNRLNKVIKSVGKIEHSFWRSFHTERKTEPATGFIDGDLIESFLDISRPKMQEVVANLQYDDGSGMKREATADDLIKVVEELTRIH
T1 sequence (O75909 whole entry partner): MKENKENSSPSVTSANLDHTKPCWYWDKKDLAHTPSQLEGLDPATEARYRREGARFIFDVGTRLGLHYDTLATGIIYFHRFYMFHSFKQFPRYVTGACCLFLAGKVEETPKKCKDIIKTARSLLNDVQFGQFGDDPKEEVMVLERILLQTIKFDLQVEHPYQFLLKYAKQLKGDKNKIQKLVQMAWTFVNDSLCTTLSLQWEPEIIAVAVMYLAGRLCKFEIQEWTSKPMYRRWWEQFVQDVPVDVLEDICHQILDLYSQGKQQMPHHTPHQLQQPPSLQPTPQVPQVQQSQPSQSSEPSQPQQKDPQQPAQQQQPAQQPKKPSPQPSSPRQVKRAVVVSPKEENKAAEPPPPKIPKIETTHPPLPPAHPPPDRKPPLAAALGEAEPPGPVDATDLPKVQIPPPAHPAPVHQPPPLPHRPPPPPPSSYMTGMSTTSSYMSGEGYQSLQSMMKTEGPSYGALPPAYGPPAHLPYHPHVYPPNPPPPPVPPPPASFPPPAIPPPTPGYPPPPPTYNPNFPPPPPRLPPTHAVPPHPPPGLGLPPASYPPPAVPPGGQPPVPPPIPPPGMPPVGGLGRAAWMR
In short: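 HEK293T cells transiently co-transfected with HaloTag_CDK12 and NanoLuc_DDB1, labelled overnight with 100 nM HaloTag 618 ligand (DMSO no-ligand control), then treated with compound at 10 μM final for 10 min at room temperature. BRET read as 460 nm donor and 647 nm acceptor emission after Nano-Glo substrate; reported as fold change.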

[2] = target: T1, DDB1-CDK12/Cyclin K ternary complex; assay: NanoBRET EC50 assay (HaloTag_CDK12 / NanoLuc_DDB1 in HEK293T); format: cell-based
In short: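 DDB1–CDK12/Cyclin K recruitment measured by NanoBRET in HEK293T transiently co-transfected with HaloTag_CDK12 and NanoLuc_DDB1 and labelled overnight with 100 nM HaloTag 618 ligand. Compounds titrated 10-point, 1:4 from 20 μM, 10 min at room temperature. Donor 460 nm and acceptor 647 nm emission read after Nano-Glo substrate.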

[3] = system: KBM7 cells (wild-type); assay: KBM7 CTG EC50 assay (UBE2M wild-type); format: cell-based, human
In short: (§1)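 Wild-type KBM7 cells, or KBM7 cells with a hypomorphic UBE2M mutation that impairs Cullin-RING ligase activity, were treated for 72 h with compounds in a 10-point, 1:4 titration (0 to 20 μM). Viability was read by CellTiter-Glo 2.0 luminescence.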

[4] = system: KBM7 cells harboring a hypomorphic UBE2M mutation; assay: KBM7 CTG EC50 assay (UBE2M knock-out); format: cell-based; details: Homo sapiens, KBM-7; 72 h incubation, CellTiter-Glo; read-out: KBM7 CTG EC50 (UBE2M knock-out) Activity Class
In short: as §1

[5] = system: CCNK; assay: NanoLuc-CCNK degradation assay (HEK293T_Nluc_CCNK-tagged cells); format: cell-based; details: 4 h incubation, HEK293T_Nluc_CCNK-tagged cells; read-out: NanoLuc-CCNK degradation DC50 Activity Class
In short: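 HEK293T cells with nanoluciferase knocked in at the N-terminus of endogenous CCNK (CRISPR) exposed to a 10-point titration (0 to 10 μM, 1:4) in Opti-MEM I + 4% FBS for 4 h. Nano-Glo substrate then added and luminescence read as a measure of Cyclin K abundance.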

[6] = target: T2, Cdk12 (696-1,082)/CycK (1-267) protein complex (Homo sapiens, UniProt Q9NYV4); assay: Cdk12 [high ATP] in vitro kinase activity assay; format: biochemical; details: physiological ATP concentrations (1 mM ATP), 50 μM compound
T2 construct: Cdk12 (696-1,082)/CycK (1-267) protein complex
T2 sequence (Q9NYV4 696-1082 limits assumed): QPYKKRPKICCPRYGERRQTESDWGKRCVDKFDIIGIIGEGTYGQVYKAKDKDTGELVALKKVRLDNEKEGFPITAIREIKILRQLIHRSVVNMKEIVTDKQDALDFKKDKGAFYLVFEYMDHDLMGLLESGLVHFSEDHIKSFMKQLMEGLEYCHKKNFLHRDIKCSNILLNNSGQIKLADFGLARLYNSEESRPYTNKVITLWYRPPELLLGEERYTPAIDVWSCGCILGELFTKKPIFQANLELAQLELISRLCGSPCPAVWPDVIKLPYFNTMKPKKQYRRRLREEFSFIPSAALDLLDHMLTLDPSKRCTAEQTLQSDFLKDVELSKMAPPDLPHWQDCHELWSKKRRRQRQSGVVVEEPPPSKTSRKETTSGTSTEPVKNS
T2 sequence (O75909 1-267 partner limits assumed): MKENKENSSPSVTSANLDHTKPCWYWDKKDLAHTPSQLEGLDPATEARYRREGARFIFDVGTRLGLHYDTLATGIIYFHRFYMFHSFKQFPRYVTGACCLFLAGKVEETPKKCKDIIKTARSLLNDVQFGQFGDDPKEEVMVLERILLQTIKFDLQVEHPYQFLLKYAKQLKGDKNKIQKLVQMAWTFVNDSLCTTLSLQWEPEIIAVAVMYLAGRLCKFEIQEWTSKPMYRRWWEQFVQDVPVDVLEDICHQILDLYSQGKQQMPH
Method: This assay on recombinant proteins allows assessment of the extent of inhibition of CDK12 kinase activity of compounds. The added benefit of Cyclin K degradation as opposed to CDK12 inhibition alone can thereby be estimated. The observed disconnect between CDK12 inhibition and efficacy in the KBM7 cell viability assay supports an important contribution of Cyclin K degradation to the therapeutic effect.
Kinase reactions (50 μl) were carried out with recombinant highly purified proteins. Cdk12 (696-1,082)/CycK (1-267) protein complex (0.5 μM) was preincubated with 50 μM of compound and vehicle control (DMSO) for 10 minutes at room temperature in kinase buffer (40 mM Tris pH 7.5, 20 mM MgCl2, 0.1 mg/ml BSA) prior the addition of pS7-CTD substrate peptide (Ac-YSPTSP-pS-YSPTSP-pS-YSPTSP-pS-Y-PEG2-RR-amide, 95% purity, Biosyntan, Germany) (100 μM) and further 10 min incubation at room temperature. Cold ATP (to a final concentration of 1 mM) was added, and the reaction mixture was incubated for 60 min at 30° C. at 500 rpm. Kinase activity was determined using the ADP-Glo™ Kinase Assay (Promega). The luminescence signal was measured using the multimode plate reader EnVision 2105 (Perkin Elmer).
Uniprot protein codes: (Cdk12) Q9NYV4, (CycK) 075909

O=C(Cc1cnc2ccccc2c1)Nc1ncc(C(F)(F)F)s1 [Example 3-36, 2-(quinolin-3-yl)-N-(5-(trifluoromethyl)thiazol-2-yl)acetamide]
NanoBRET fold-change Activity Class [1]: C (2-3 fold increase) | activity in NanoBRET assay (ternary complex formation), in words [2]: good activity | NanoBRET EC50 Activity Class ([2]; 10-point titration from 20 μM, HEK293T): B (0.50 μM≤EC50≤0.25 μM) | pEC50 ([3]; Homo sapiens, KBM-7, 72 h incubation, CellTiter-Glo, read-out: KBM7 CTG EC50 (UBE2M wild-type) Activity Class): ≥ 6.60 | activity in KBM7 cytotoxicity assay, in words ([3]; KBM7): extremely potent activity | pEC50 [4]: ≥ 6.60 | DC50 [5]: ≤ 100 nM | Cdk12 inhibition, in words [6]: weak Cdk12 inhibition
